Tested on: Human umbilical cord mesenchymal stem cells
Experiment: Screening for the content of conophylline in the medium: differentiation induction, cell cluster morphology
Type: cell-based
Method: Media to be tested: 89 parts by volume of DMEM (High Glucose, with 4.5 g/L glucose), 5 parts by volume of serum replacement (SR), 2 parts by volume of B27 (50×), 1 part by volume of ITS, 1 part by volume of non-essential amino acids (NEAA), 1 part by volume of N-2 (100×), and heparin in a final concentration of 1 μg/ml, 10 mmol/L nicotinamide, and recombinant human basic fibroblast growth factor (b-FGF), epidermal growth factor (EGF), hepatocyte growth factor (HGF) and pentagastrin each in a final concentration of 10 ng/ml, and conophylline with a concentration of 1, 10, 50, 100, 200, and 300 ng/ml respectively.
Human umbilical cord mesenchymal stem cells were induced to differentiate through being cultured in the above media comprising different concentrations of conophylline respectively.

Compound: CC[C@@]12CC(C(=O)OC)=C3Nc4cc5c(cc4[C@@]34CCN(C[C@H]3O[C@H]31)[C@@H]24)[C@@H]1[C@H](O5)[C@@H](O)[C@@]2(CC)CC(C(=O)OC)=C3Nc4c(cc(O)c(OC)c4OC)[C@@]34CCN1[C@@H]24 [conophylline]
- state of cell clusters (medium with 1 ng/ml conophylline): the maturity of the cell clusters was insufficient
- state of cell clusters (medium with 10 ng/ml conophylline): the maturity of the cell clusters was insufficient
- state of cell clusters (medium with 50 ng/ml conophylline): cell clusters were compact and grew gradually
- state of cell clusters (medium with 100 ng/ml conophylline): cell clusters were compact and grew gradually
- state of cell clusters (medium with 200 ng/ml conophylline): cell clusters were compact and grew gradually
- state of cell clusters (medium with 300 ng/ml conophylline): the differentiated cells had undergone an undirected differentiation
